Like-named read-outs stand apart in the source and are kept apart here. Values belong to the compound of their own block, whether it stands above or below them.
Assays:
MDR1 [1] = assay: MDR1 activity, bidirectional transport of Rhodamine 123 in EpiAirway; format: in vitro ADME, human
MDR1 [2] = target: T1, MDR1 (Homo sapiens, UniProt P08183); assay: MDR1 activity, bidirectional transport of Rhodamine 123 in Calu-3; format: in vitro ADME; settings: 1 µM Rhodamine 123
T1 construct: MDR1 in Calu-3 cultures is expressed and operative on the apical membrane of the cells only after 21 d at ALI; endogenous in cells; host or cells: Calu-3 cells at air-liquid interface, 8 d or 21 d
T1 sequence (P08183 whole entry): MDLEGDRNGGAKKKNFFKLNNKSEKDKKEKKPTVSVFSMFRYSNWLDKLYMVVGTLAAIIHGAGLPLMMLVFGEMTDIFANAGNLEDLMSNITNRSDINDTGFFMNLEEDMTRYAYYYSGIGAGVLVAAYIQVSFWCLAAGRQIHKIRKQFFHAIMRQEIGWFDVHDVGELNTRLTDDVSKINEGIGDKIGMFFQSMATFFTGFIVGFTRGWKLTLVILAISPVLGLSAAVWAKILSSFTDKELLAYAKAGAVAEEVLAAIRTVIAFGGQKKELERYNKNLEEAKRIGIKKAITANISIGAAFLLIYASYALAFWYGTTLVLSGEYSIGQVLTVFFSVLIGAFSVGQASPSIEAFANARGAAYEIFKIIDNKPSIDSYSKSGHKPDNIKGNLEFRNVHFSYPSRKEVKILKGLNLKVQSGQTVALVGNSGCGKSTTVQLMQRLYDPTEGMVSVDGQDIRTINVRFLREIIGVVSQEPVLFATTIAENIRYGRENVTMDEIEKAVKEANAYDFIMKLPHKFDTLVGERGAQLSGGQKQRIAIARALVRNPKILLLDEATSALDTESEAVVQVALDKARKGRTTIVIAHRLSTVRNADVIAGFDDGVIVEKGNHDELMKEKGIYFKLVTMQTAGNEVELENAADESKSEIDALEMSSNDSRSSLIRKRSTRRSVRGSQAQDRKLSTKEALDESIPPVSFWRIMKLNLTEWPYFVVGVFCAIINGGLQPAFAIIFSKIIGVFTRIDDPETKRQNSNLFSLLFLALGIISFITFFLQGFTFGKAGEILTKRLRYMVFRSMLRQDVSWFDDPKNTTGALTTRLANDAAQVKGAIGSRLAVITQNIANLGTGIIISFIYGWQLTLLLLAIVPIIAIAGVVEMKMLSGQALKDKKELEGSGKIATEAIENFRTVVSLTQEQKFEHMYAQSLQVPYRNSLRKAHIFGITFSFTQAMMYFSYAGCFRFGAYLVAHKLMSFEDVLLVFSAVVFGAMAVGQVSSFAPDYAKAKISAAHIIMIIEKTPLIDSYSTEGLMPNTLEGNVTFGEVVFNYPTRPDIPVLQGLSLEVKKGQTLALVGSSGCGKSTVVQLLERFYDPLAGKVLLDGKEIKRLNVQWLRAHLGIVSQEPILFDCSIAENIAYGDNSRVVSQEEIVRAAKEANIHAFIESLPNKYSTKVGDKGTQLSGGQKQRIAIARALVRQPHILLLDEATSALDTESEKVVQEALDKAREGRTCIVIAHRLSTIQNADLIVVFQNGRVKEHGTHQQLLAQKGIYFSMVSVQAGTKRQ
Method: (§2) The activity of ABC transporters was assessed by measuring the apical-to-basolateral (AB) and basolateral-to-apical (BA) fluxes of specific substrates. To this aim, cell monolayers were washed twice in HBSS and equilibrated for 30 min in the same solution (pH 7.4, 37 °C). […] Aliquots of the solution in the receiver chamber were collected after 0 min, 30 min, 60 min and 120 min and replaced with fresh HBSS. The fluxes were determined by measuring fluorescence with an EnSpire® Multimode Plate Reader (Perkin Elmer), or radioactivity with MicroBeta^2 liquid scintillation spectrometer. Data obtained were employed to calculate the apparent permeability coefficient (Papp). The integrity of cell monolayers, verified by measuring TEER before and after the experiment, was not modified by the experimental procedures.
(§3) Efflux ratio (ER) was calculated as the ratio between Papp measured for BA and AB fluxes, while uptake ratio (UR) was calculated as the ratio between Papp measured for AB and BA fluxes.

MDR1 (P-glycoprotein) = target: T2, MDR1 (P-glycoprotein) (Homo sapiens, UniProt P08183); assay: as above; format: in vitro ADME; settings: human, Calu-3, 21 d at ALI
T2 construct: MDR1 in Calu-3 cultures is expressed and operative on the apical membrane of the cells only after 21 d at ALI; endogenous in cells; host or cells: Calu-3 cells at air-liquid interface, 8 d or 21 d
T2 sequence (P08183 whole entry): as above
Method: as §2, §3

BCRP [3] = target: T3, BCRP (Homo sapiens, UniProt Q9UNQ0)
T3 sequence (Q9UNQ0 1-655): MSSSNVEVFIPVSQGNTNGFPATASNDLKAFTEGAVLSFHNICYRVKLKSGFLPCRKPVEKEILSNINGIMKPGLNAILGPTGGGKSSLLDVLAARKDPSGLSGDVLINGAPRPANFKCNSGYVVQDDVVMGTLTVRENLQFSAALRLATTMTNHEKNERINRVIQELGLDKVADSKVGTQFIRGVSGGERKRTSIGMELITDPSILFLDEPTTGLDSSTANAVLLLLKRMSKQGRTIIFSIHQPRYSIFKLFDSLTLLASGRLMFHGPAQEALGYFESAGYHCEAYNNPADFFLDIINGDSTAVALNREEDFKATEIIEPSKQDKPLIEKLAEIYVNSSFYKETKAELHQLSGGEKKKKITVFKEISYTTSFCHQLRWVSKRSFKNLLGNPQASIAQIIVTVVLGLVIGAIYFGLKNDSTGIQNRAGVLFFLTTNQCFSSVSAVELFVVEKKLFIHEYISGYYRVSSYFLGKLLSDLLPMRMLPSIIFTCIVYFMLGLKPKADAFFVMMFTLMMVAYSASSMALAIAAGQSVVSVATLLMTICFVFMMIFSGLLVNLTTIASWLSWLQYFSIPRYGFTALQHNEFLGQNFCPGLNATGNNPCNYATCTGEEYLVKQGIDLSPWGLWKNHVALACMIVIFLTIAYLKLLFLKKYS
Method: as §2, §3

BCRP [4] = target: T3, BCRP; assay: BCRP activity, bidirectional transport of 3H-mitoxantrone in EpiAirway; settings: 21 d at ALI, 10 µM Febuxostat
Method: as §2, §3

Calu-3 cells = assay: Paracellular and transcellular permeability (apical-to-basolateral Papp) in Calu-3; format: in vitro ADME, human; settings: Calu-3, after 21 d at ALI, AB flux, 20 µM 14C-mannitol
Method: (§1) In parallel, the paracellular and transcellular permeability of cultures to solutes was assessed by monitoring the apical-to-basolateral fluxes of ^14C-mannitol and ^3H-propranolol, respectively. In detail, cell monolayers were washed and incubated for 30 min in Hank’s Balanced Salt Solution (HBSS, pH 7.4, 37 °C); HBSS containing ^14C-mannitol (1 µCi/mL, corresponding to 20 µM) or ^3H-propranolol (3 µCi/mL; 10 µM) was then added to the apical side (donor chamber) of the monolayers.

EpiAirway™ = format: in vitro ADME, human
Method: as §1

AB vs BA fluxes (MDR1 [1]; 8 d and 21 d at ALI, 1 µM Rhodamine 123): no differences | values of Papp and ER (MDR1 [1]; Rhodamine 123 fluxes): very low | Papp for AB vs BA fluxes (MDR1 [2]; Calu-3, 8 d at ALI): comparable | Papp for BA transport vs AB flux (MDR1 [2]; Calu-3, 21 d at ALI): hugely higher than that of AB flux | efflux ratio at 120 min, 1 µM (MDR1 (P-glycoprotein); pH 7.4, probe Rhodamine 123, with PSC833 10 µM, 1 µM Rhodamine 123, + 10 µM PSC833, read-out: efflux ratio (ER) in the presence of the inhibitor): 2.8 | efflux ratio at 120 min, 1 µM (MDR1 (P-glycoprotein); pH 7.4, probe Rhodamine 123, 1 µM Rhodamine 123, control (no inhibitor), read-out: efflux ratio (ER)): 7
Compound: COC(=O)c1ccccc1-c1c2ccc(=N)cc-2oc2cc(N)ccc12 [Rhodamine 123]

Compound: Cc1nc(-c2ccc(OCC(C)C)c(C#N)c2)sc1C(=O)O [Febuxostat]
effect of inhibitor on Papp for AB flux of 3H-mitoxantrone (BCRP [3]): modest but significant decrease | effect of inhibitor on BA flux of 3H-mitoxantrone (BCRP [4]): remained almost unaffected | effect of inhibitor on uptake ratio (UR) of 3H-mitoxantrone (BCRP [4]): slight decrease

Papp for mannitol, 21 d vs 8 d of culture (Calu-3 cells): decreased | mannitol permeability (Papp), 8 d vs 21 d of culture (EpiAirway™): no difference
Compound: OC[C@@H](O)[C@@H](O)[C@H](O)[C@H](O)CO [mannitol]

Compound: C/C=C/C[C@@H](C)C(=O)[C@H]1C(=O)N[C@@H](C(C)C)C(=O)N(C)CC(=O)N(C)[C@@H](CC(C)C)C(=O)N[C@@H](C(C)C)C(=O)N(C)[C@@H](CC(C)C)C(=O)N[C@@H](C)C(=O)N[C@H](C)C(=O)N(C)[C@@H](CC(C)C)C(=O)N(C)[C@@H](CC(C)C)C(=O)N(C)[C@@H](C(C)C)C(=O)N1C [PSC833]
effect of inhibitor on Rhodamine 123 fluxes (MDR1 [1]; 8 d and 21 d at ALI, 10 µM PSC833): lack of inhibition

Compound: CC(C)NCC(O)COc1cccc2ccccc12 (stereo not shown) [propranolol]
propranolol permeability (Papp), EpiAirway vs Calu-3 (EpiAirway™; human, 120 min, 10 µM, pH 7.4): slightly higher than that of Calu-3 cells
